In US10085940B2, “Liposomes co-encapsulating a bisphosphonate and an amphipathic agent” (YISSUM RESEARCH DEVELOPMENT COMPANY OF THE HEBREW …, priority 2011, dated 2018):

Columns and labels:
KB-hiFR = assay: In vitro cytotoxicity, 72 hr continuous exposure, methylene blue staining; assay type: cell-based, human; conditions: for IC50: KB-hiFR, 72 hr continuous exposure
Procedure: (§1) Cytotoxicity was assayed using varying concentrations of ALD (0.1-200 μM) under standard 72 hr, continuous exposure, in 96-multiwell assays. Growth rate was assessed colorimetrically based on methylene blue staining and data was obtained with an automatic plate reader and IC50 values were determined

[1] = tested on: M109R (doxorubicin resistant) carcinoma; assay type: in vivo, mouse; conditions: M109R footpad tumor, i.v. 5 mg/kg doxorubicin or equivalent ALD, D7, D14, D21
Procedure: The tumor model used here is the mouse M109R (doxorubicin resistant) carcinoma.
M109R tumor cells (10^6 cells/0.05 ml) were inoculated into the subcutaneous space of the mouse right hind footpad. Five to 7 days after inoculation, mice injected with M109R cells developed solid tumors as measured by the increased thickening of the footpad. Different liposomes were injected i.v. at dose levels of 5 mg/kg based on Doxorubicin content or an amount of Alendronate equivalent to that present in the co-encapsulated formulation at doxorubicin dose of 5 mg/kg. […] Treatment was administered on Day 7 (D7), Day 14 (D14) and Day 21 (D21). Kaplan-Meyer curves were based on an experimental endpoint of tumor size equal or greater than 4 mm.

KG-1 cells = assay: PKH26/AnnexinV flow cytometry of KG-1 cells co-cultured with γδ T-cells; assay type: cell-based, human; conditions: 20 μg/mL (Doxil 13.3 μg/mL) 24 h, then 4 h with γδ T-cells 1:1 or 1:5, 100 U/mL IL-2
Procedure: The following method is based on the procedure described by Fischer and Mackensen (2003) The flow cytometric PKH-26 assay for the determination of T-cell mediated cytotoxic activity. Methods 31: 135-142.
Specifically, 1×10^5 KG-1 cells, previously stained with PKH26 Red Fluorescent, were plated in a 24 well plate in 1 mL of complete media. These cells were then treated with different preparations: • (i) 20 μg/mL Alendronate (free Alendronate) • (ii) 20 μg/mL of liposomal Alendronate+Doxorubicin (L-ALD/DOX), • (iii) 20 μg/mL of folate targeted liposomal Alendronate+Doxorubicin (FR-L-ALD/DOX); • (iv) 13.3 μg/mL Doxil (the amount of doxorubicin correspondent to doxorubicin in L-ALD/DOX) • (v) Empty liposomes (stealth) • (vi) Control—no treatment.
Cells were incubated for 24 h at 37° C. with a treatment formulation according to the above groups. After 24 h, each group of treated KG-1 cells was co-cultured with γδ T_cells at a ratio of 1 tumor cell to 1 γδ T-cell and at 1 tumor cell to 5 γδ T-cells. In addition, 100 U/mL of IL-2 was also given to each treatment group. […]
After 4 h incubation, the cell cultures were stained with AnnexinV FITC (BD) in order to measure the percentage of apoptotic cells. The samples were analysed by flow cytometry and the principle is that tumor cell death is measured by analysing PKH26^+AnnexinV^+ cells.

[2] = tested on: N87 human gastric carcinoma cells; assay: In vitro cytotoxicity, 72 hr continuous exposure, methylene blue staining; assay type: cell-based; conditions: N-87
Procedure: as §1

[3] = tested on: IGROV-1 ovarian carcinoma; assay: as above; assay type: cell-based, human
Procedure: as §1
Cytotoxicity was assayed as described above in Example 1.

SMILES | IC50 (KB-hiFR; Homo sapiens) | cytotoxicity (in words) (KB-hiFR; stated for KB, N87 and IGROV cell lines together (FIGS. 3B-3D)) | anti-tumor activity [1] | tumor cell killing / sensitivity to γδ T-cells (PKH26+AnnexinV+ cells) (KG-1 cells) | IC50 (KB-hiFR) | IC50 [2] | IC50 [3]
NCCCC(O)(P(=O)(O)O)P(=O)(O)O [Free ALD, 4-amino-1-hydroxybutylidene-1,1-bisphosphonic acid] | > 20000 nM | essentially no cytotoxicity | no anti-tumor effect | enhances tumour sensitivity to γδ T-cells' cytotoxic action |  |  | 
COc1cccc2c1C(=O)c1c(O)c3c(c(O)c1C2=O)C[C@@](O)(C(=O)CO)C[C@@H]3O[C@H]1C[C@H](N)[C@H](O)[C@H](C)O1 [Free DOX, doxorubicin] |  |  |  |  | 40 nM | 3120 nM | 250 nM
